Patent US12465607B2, “ALK inhibitors for treatment of ALK-negative cancer and plasma cell-mediated diseases” (UNIVERSITETET I OSLO, priority 2019, dated 2025)

Columns and labels:
[1] = test system: CD138+ multiple myeloma cells; experiment: Viability of patient CD138+ multiple myeloma cells, CellTiterGlo 72 hr; assay type: cell-based; details: Homo sapiens, Multiple myeloma cell, patient-derived CD138+ multiple myeloma cells
Experimental: Viability was measured by CellTiterGlo.
Seven multiple myeloma patient samples were included. Patients were due for treatment after second relapse (patient number 1701), third relapse (2101, 2021, 1802, 9041, 2504) or fourth relapse (2201).
Bone marrow mononuclear cells (BMMCs) were prepared from patient bone marrow aspirates by Lymphoprep density gradient centrifugation. After CD8 depletion by Dynabeads (Life Technologies) BMMCs were subsequently stimulated by expanding Th cells in the presence of Human T-Activator CD3/CD28 Dynabeads (Life Technologies) and 100 U/ml human interleukin-2 (hIL-2, Roche, Mannheim, Germany). After 48 h, BMMCs were subjected to CD138+ enrichment to isolate multiple myeloma plasma cells using MACS CD138+ microbeads (Milteny Biotec, Bergisch Gladbach, Germany).
6 crizotinib concentrations were tested, in 10-fold dilutions covering a 0.1-10,000 nM concentration range (plates dispensed by an Echo acoustic dispenser, LabCyte Inc., San Jose, CA, USA).
The plate was incubated in a humidified environment at 37° C. and 5% CO2. Cell viability was determined after 72 hr using the CellTiterGlo (Promega, Madison, WI, USA) ATP assay according to the manufacturer's instructions and using an Envision Xcite plate reader (Perkin Elmer, Shelton, CT, USA). […]

AMO-1-BTZ = experiment: Myeloma cell line viability, CCK-8, 24 hr; assay type: cell-based; details: Homo sapiens, 24 hr treatment
Experimental: (§1) The Results are the means of 3 independent experiments. Note the concentration-dependent reduction of viability of myeloma cells.
(§2) The cell lines used were the human multiple myeloma cell lines L363 (DSMZ catalogue number ACC 49), AMO-1 (DSMZ catalogue number ACC 538) and ARH-77 (ATCC CRL-1621).
(§3) Multiple myeloma cell lines were maintained in RPMI-1640 culture medium (Sigma-Aldrich, Buchs, Switzerland) supplemented with 10% heat-inactivated fetal bovine serum (FBS), 100 μg/ml streptomycin and 100 U/ml penicillin/streptomycin (Sigma-Aldrich, Buchs, Switzerland). The bortezomib-resistant cell lines were established and maintained from their parental cell line by continuous drug exposure>12 months to their parental cell lines (Soriano et al, Leukemia 30: 2198-2207, 2016).
(§4) The viability of the cells was determined 24 hr post treatment using Cell Counting Kit-8 (CCK-8; MedChemExpress, NJ, USA) according to the manufacturer's instructions.

AMO-1 = experiment: Myeloma cell line viability, CCK-8, 24 hr; assay type: cell-based; details: Homo sapiens, AMO1; AMO-1, 24 hr treatment
Experimental: as §1, §2, §3, §4

L363-BTZ = experiment: Myeloma cell line viability, CCK-8, 24 hr; assay type: cell-based, human
Experimental: as §1, §2, §3, §4

L363 = experiment: Myeloma cell line viability, CCK-8, 24 hr; assay type: cell-based, human
Experimental: as §1, §2, §3, §4

ARH77 = experiment: Myeloma cell line viability, CCK-8, 24 hr; assay type: cell-based, human; details: ARH77, 24 h
Experimental: In A, HeLa cells expressing inducible IgM (heavy and light chain) were treated with mifepristone to induce IgM expression over a period of 2 weeks. Afterwards, cells were treated with 1 μM crizotinib for 24 h followed by lysis and immunoblotting for caspase 3. […] Cleavage of caspase 3 is indicative of apoptosis induction. + and − indicate cells with or without mifepristone treatment, respectively. B, Concentration-response curves for the effect of crizotinib treatment (24 h) on the viability of three different myeloma cell lines. Results are the means of three independent experiments. C, Expression levels of LTK and ALK mRNA in the indicated myeloma cell lines determined by qPCR.
as §2
Multiple myeloma cell lines were maintained in RPMI-1640 culture medium (Sigma-Aldrich, Buchs, Switzerland) supplemented with 10% heat-inactivated fetal bovine serum (FBS), 100 μg/ml streptomycin and 100 U/ml penicillin/streptomycin (Sigma-Aldrich, Buchs, Switzerland). […]
as §4

[2] = test system: Hepatocellular carcinoma cells (HepG2); experiment: Apoptosis (cleaved caspase 3 immunoblot) in HepG2 cells with doxorubicin; assay type: cell-based; details: 1 μM crizotinib with 1, 2 and 5 μM doxorubicin, 24 h
Experimental: In B, Hepatocellular carcinoma cells (HepG2) were treated with DMSO (untreated) or with increasing concentrations (1, 2 and 5 μM) of doxorubicin for 24 h and apoptosis was assessed by immunoblotting for cleaved caspase 3. […] Cells were also treated with the same concentrations of doxorubicin in the presence of 1 μM crizotinib for 24 h.
Cells were washed twice with PBS and collected in lysis buffer (50 mM Tris-HCl, pH7.4; 1 mM EDTA, 100 mM NaCl, 0.1% SDS and 1% NP-40) supplemented with proteinase and phosphatase inhibitor (Pierce Protease and Phosphatase Inhibitor Mini Tablets, EDTA-free). Lysates were incubated on ice for 10 minutes followed by clearing centrifugation at 20,000×g at 4° C. for 10 min. Supernatants were transferred into fresh tubes and reducing loading buffer was added. Lysates were subjected to SDS-PAGE and transferred onto a nitrocellulose membrane using semi-dry transfer. The membrane was blocked (in ROTI buffer (Roth) or 5% milk in PBS with 0.1% tween) and probed with the appropriate primary antibodies. Subsequently membranes were incubated with horseradish peroxidase-conjugated secondary antibody. Immunoblots were developed using a chemiluminescence reagent (ECL clarity, BioRad) and imaged using ChemiDoc (BioRad).

L363 cells = experiment: ER stress in L363 cells (spliced vs non-spliced XBP1, ATF4; RT-PCR); assay type: cell-based, human; details: 5 μM, 4, 8 and 12 h
Experimental: A, L363 cells were treated with 5 μM crizotinib and the expression of spliced vs non-spliced XBP1 and ATF4 was determined 4, 8 and 12 h post-treatment. Splicing of XBP1 and accumulation of ATF4 are signs of the induction of ER stress. B, Bortezomib-resistant L363aBTZ cells were treated with 5 μM crizotinib and the expression of spliced vs non-spliced XBP1 and ATF4 was determined at 4, 8 and 12 h post-treatment. C, HeLa cells expressing inducible IgM (heavy and light chain) were treated with mifepristone to induce IgM expression over a period of 2 weeks. Afterwards, cells were treated with 1 μM crizotinib for 24 h followed by lysis and immunoblotting against spliced XBP1 to measure ER stress. + and − indicate cells with or without mifepristone treatment, respectively. Induced cells are considered hypersecretory and non-induced cells have a normal level of secretion. Numbers above the blot show the quantification of densitometric measurements from three independent experiments ±SD.
Total RNA was isolated from cell lines using Trizol (Ambion/Thermo Fisher Scientific, MA, USA) and Direct-zol RNA MiniPrep (Zymo Research, CA, USA). 500 ng of total RNA was reverse transcribed using High Capacity cDNA Reverse Transcription kit (Applied Biosystems/Thermo Fisher Scientific, MA, USA) according to the manufacturer's instructions. […]

With `C[C@@H](Oc1cc(-c2cnn(C3CCNCC3)c2)cnc1N)c1c(Cl)ccc(F)c1Cl` [crizotinib, 3-[(1R)-1-(2,6-dichloro-3-fluorophenyl)ethoxy]-5-(1-piperidin-4-ylpyrazol-4-yl)pyridin-2-amine] the IC50 [1] was 800 to 5000 nM, the IC50 (AMO-1-BTZ) was 6.48 µM and the IC50 (AMO-1) was 3.92 µM. For the same compound, the IC50 (L363-BTZ; Homo sapiens, L363-BTZ, 24 hr treatment) was 4.15 µM, the cell viability (L363-BTZ; bortezomib-resistant clone of L363, 24 h) was “The same was found to be the case” and the IC50 (L363; Homo sapiens, L-363, L363, 24 hr treatment) was 3.32 µM. The cell viability (L363; L363, 24 h) was “clear reductions in cell viability”, the cell viability (ARH77) was “clear reductions in cell viability” and the “sensitisation to apoptosis (cleaved caspase 3)” value [2] was “sensitised the HepG HCC cells to apoptosis”. For the same compound, the “ER stress (splicing of XBP1, induction of ATF4)” value (L363 cells) was “induced ER stress”.
